Assays:
LOX-1 [1] = experiment: Hepatic LOX-1 mRNA expression in LDLR-/- mice fed a western diet; assay type: in vivo, mouse; conditions: liver, LDLR-/- (LDLRKO) mice, western diet 7 days, increasing concentrations of compound, FIG. 1
Description: (§1) Since LOX-1 is regulated by oxLDL, LOX-1 mRNA expression was monitored in liver from LDLR−/− (LDLRKO) mice fed a western diet for 7 days.

VCAM-1 [2] = experiment: Expression of LOX-1 target gene VCAM-1 (FIG. 2); assay type: in vivo, mouse
CD36 = experiment: Expression of oxLDL hepatic scavenger receptor CD36 (FIG. 3); assay type: in vivo, mouse; conditions: specificity control
Description: as §1
Importantly, the regulation of LOX-1 by FXR was specific, since expression of another oxLDL hepatic scavenger receptor, CD36, was not affected by compound A (FIG. 3).

LOX-1 [3] = experiment: LOX-1 expression in liver and kidney of diabetic KKAy mice; assay type: in vivo, mouse
Description: To determine whether FXR agonists could block LOX-1 gene expression under other settings, the regulation of LOX-1 by FXR was studied in the diabetic mouse strain, KKAy. […] The renal regulation of LOX-1 was also determined since FXR is also expressed in the kidney.

soluble LOX-1 (sLOX-1) = experiment: Serum soluble LOX-1 (sLOX-1) by ELISA based assay in mouse strains; assay type: in vivo; conditions: FIG. 5B
Description: Moreover, the expression of soluble LOX-1 (sLOX-1) in the serum was also monitored using an ELISA based assay after Compound A treatment. […] (FIG. 5B).

LOX-1 [4] = experiment: Hepatic LOX-1 gene expression by real-time PCR in FXR KO or wildtype mice; assay type: in vivo, mouse; conditions: male FXR KO or wildtype mice, chow diet with 0.5% chenodeoxycholic acid (CA), 30 mpk orally daily 7 days, FIG. 6
Description: (§2) Male FXR deficient (FXR KO) or wildtype mice on a chow diet supplemented with 0.5% chenodeoxycholic acid (CA) were treated orally daily with 30 mpk of Compound A for 7 days, and hepatic gene expression of LOX-1 and VCAM-1 was determined by real-time PCR.

VCAM-1 [5] = experiment: Hepatic VCAM-1 gene expression by real-time PCR in FXR KO or wildtype mice; assay type: in vivo, mouse; conditions: male FXR KO or wildtype mice, chow diet with 0.5% chenodeoxycholic acid (CA), 30 mpk orally daily 7 days, FIG. 6
Description: as §2

Compound: CC(C)OC(=O)C1=CN(C(=O)c2ccc(F)c(F)c2)CC(C)(C)c2c1[nH]c1ccccc21 [Compound A, isopropyl 3-(3,4-difluorobenzoyl)-1,1-dimethyl-1,2,3,6-tetrahydroazepino[4,5-b]indole-5-carboxylate]
- LOX-1 mRNA induction by the western diet (LOX-1 [1]): dose dependently inhibited
- VCAM-1 (LOX-1 target gene) expression (VCAM-1 [2]): significantly inhibited
- CD36 expression (CD36): not affected
- hepatic LOX-1 expression (LOX-1 [3]; chow diet, 7 days treatment, FIG. 4A): significant repression
- renal LOX-1 expression (LOX-1 [3]; kidney, FIG. 4B): significantly inhibited
- sLOX-1 reduction in FXR KO mouse strain (soluble LOX-1 (sLOX-1); FXR KO mouse strain): dependent upon FXR
- serum sLOX-1 (soluble LOX-1 (sLOX-1); various mouse strains, high fat diet, 30 mpk orally daily for 7 days): significantly reduced
- inhibition of hepatic LOX-1 gene expression, FXR KO vs wildtype (LOX-1 [4]): dependent upon FXR
- inhibition of hepatic VCAM-1 gene expression, FXR KO vs wildtype (VCAM-1 [5]): dependent upon FXR
